According to patent US20060128681A1, “Novel rho inhibitors” (priority 2002, published 2006):
pIC50: −log10 of the molar value. Read-outs that look alike come from different tables or passages of the source.

Experiments:
[1] = target: T1, rho transcription termination factor (Escherichia coli, UniProt P0AG30); details: for Vmax(app) / % activity (Vmax or Vpeak) / % efficiency (Vmax/KM or Vpeak/KM) / Vpeak(app): Mg^2+-free; for Vmax(app) / Vpeak(app): from activation curves; for % activity (Vmax or Vpeak) / % efficiency (Vmax/KM or Vpeak/KM): relative to Mg^2+; for metal activation profile: absence of MgCl2, 1.9-4000 μM metal; for n (Hill): nonlinear regression of velocity curves; for effect on rho poly(C)-dependent ATP hydrolysis in the absence of MgCl2: (DL)DTT-free buffer; for peak velocity / total metal concentration at peak velocity: absence of MgCl2, FIG. 8;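 on % activity (Vmax or Vpeak): Poly(C)-dependent ATP hydrolysis by wild-type rho with other divalent metals in place of magnesium, radiolabeled ATP at varied levels, TLC phosphorimaging, initial rates from hydrolyzed ATP versus time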;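 on % efficiency (Vmax/KM or Vpeak/KM): Poly(C)-dependent ATP hydrolysis by wild-type rho with other divalent metals in place of magnesium, radiolabeled ATP at varied levels, TLC phosphorimaging, initial rates from hydrolyzed ATP versus time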;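 on Vmax(app): Poly(C)-dependent ATP hydrolysis by wild-type rho with other divalent metals in place of magnesium, radiolabeled ATP at varied levels, TLC phosphorimaging, initial rates from hydrolyzed ATP versus time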;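 on efficiency (Vmax/KM or Vpeak/KM) relative to Co^2+: Poly(C)-dependent ATP hydrolysis by wild-type rho with other divalent metals in place of magnesium, radiolabeled ATP at varied levels, TLC phosphorimaging, initial rates from hydrolyzed ATP versus time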
Experimental: Rho poly(C)-dependent ATPase assay. […] The ribonucleotide-stimulated ATPase activity of rho at 32° C. was assayed by the amount of ^32P-labeled inorganic phosphate hydrolyzed from ATP after separation on PEI-TLC plates (prerun with water and dried) using 0.75 M potassium phosphate (pH 3.5) as the mobile phase. Reactions were initiated by adding ATP (varying concentrations) and 0.5 μCi [γ-^32P] ATP to the solution containing 40 mM Tris-HCl (pH 7.9), 50 mM KCl, 100 nM or 250 nM poly(C), 100 or 250 nM rho (monomer) and MgCl2 (1 mM or 10 mM). The TLC plates were exposed to PhosphorImager plates (Fuji and Molecular Dynamics) (3 h), scanned on a Storm 860 PC PhosphorImager and analyzed using Molecular Dynamic's ImageQuant 5.0. The initial rates of the reactions were determined by plotting the amount of ATP hydrolyzed against time. Each reaction was performed in duplicate and the results averaged.
A. Divalent Metal Activation of Rho in the Absence of MgCl2. […] For each metal, wild-type rho was pretreated with 20 mM EDTA to deplete the protein of residual metals and removed the excess EDTA and the metal•EDTA complex by a spin column.

[2] = target: T1, rho transcription termination factor; details: for rho inhibition at 4000 μM: 4000 μM metal; for pIC50: read-out: I50, rho poly(C)-dependent ATP hydrolysis
Experimental: Rho poly(C)-dependent ATPase assay. See, generally, Sharp et al., (1983) A kinetic mechanism for the poly(C)-dependent ATPase of the Escherichia coli transcription termination protein, rho, J. Biol. Chem. 258, 3482-3486. The ribonucleotide-stimulated ATPase activity of rho at 32° C. was assayed by the amount of ^32P-labeled inorganic phosphate hydrolyzed from ATP after separation on PEI-TLC plates (prerun with water and dried) using 0.75 M potassium phosphate (pH 3.5) as the mobile phase. Reactions were initiated by adding ATP (varying concentrations) and 0.5 μCi [γ-^32P] ATP to the solution containing 40 mM Tris-HCl (pH 7.9), 50 mM KCl, 100 nM or 250 nM poly(C), 100 or 250 nM rho (monomer) and MgCl2 (1 mM or 10 mM). The TLC plates were exposed to PhosphorImager plates (Fuji and Molecular Dynamics) (3 h), scanned on a Storm 860 PC PhosphorImager and analyzed using Molecular Dynamic's ImageQuant 5.0. The initial rates of the reactions were determined by plotting the amount of ATP hydrolyzed against time. Each reaction was performed in duplicate and the results averaged.
B. Divalent Metal Activation of Rho in the Presence of MgCl2. To provide additional information concerning the roles of divalent metals in rho activation, the poly(C)-dependent assays were repeated in the presence of 10 mM MgCl2 and varying concentrations (10, 20, 40, 80, 125, 160, 250, 320, 500, 640 μM) of the divalent metals.

[3] = target: T1, rho transcription termination factor; parameters: made in house; host or cells: E. coli strain AR120 with plasmid p39-ASE; details: poly(dC)-ribo(C)10 ATPase assay, literature (Magyar 1996); cited from earlier work
E. coli RecA = E. coli RecA (Escherichia coli, UniProt P0A7G6); test: RecA poly(dT)-dependent ATP hydrolysis; assay type: biochemical; details: bicyclomycin 0-400 μM; Zn-(L)DTT equimolar
Experimental: The validity of some of these new leads has been questioned, and attention is now focused on determining the inhibition pathway for these compounds and whether the inhibitors show enzyme specificity. McGovern et al., (2001) A common mechanism underlying promiscuous inhibitors from virtual and high-throughput screening, J. Med. Chem. 45, 1712-1722. Compounds that show nonspecific interaction have been defined as “promiscuous inhibitors.” The inhibitor specificity of Zn-(L)DTT complexes was tested. […] Next, the time dependency for chelate inhibition was examined because a well-behaved, reversible inhibitor is typically not affected by incubation time. McGovern et al., (2001). […] The effect of Zn-(L)DTT solutions on E. coli RecA poly (dT)-dependent ATP hydrolysis was determined.

[4] = target: T1, rho transcription termination factor; test: Rho poly(C)-dependent ATPase assay, inhibition by metal chelates and bicyclomycin; assay type: biochemical, E. coli; parameters: made in house; host or cells: E. coli strain AR120 with plasmid p39-ASE; details: (DL)DTT 0.1-0.3 mM alone or equimolar with metal chloride, in presence of MgCl2
Experimental: Rho poly(C)-dependent ATPase assay.
The reactions were analyzed as described above.

T1 sequence (P0AG30 whole entry): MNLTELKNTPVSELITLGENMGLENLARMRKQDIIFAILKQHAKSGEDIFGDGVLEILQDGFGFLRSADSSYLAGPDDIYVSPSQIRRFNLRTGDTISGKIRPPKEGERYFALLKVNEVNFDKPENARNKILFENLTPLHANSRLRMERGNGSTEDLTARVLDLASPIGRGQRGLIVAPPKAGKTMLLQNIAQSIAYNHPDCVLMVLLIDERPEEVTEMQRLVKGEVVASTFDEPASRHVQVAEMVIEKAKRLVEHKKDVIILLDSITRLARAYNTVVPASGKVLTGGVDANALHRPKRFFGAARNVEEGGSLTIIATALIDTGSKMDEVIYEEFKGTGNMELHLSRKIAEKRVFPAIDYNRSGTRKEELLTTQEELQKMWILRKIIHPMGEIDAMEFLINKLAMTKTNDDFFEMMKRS
Sequence of E. coli RecA (P0A7G6 2-353): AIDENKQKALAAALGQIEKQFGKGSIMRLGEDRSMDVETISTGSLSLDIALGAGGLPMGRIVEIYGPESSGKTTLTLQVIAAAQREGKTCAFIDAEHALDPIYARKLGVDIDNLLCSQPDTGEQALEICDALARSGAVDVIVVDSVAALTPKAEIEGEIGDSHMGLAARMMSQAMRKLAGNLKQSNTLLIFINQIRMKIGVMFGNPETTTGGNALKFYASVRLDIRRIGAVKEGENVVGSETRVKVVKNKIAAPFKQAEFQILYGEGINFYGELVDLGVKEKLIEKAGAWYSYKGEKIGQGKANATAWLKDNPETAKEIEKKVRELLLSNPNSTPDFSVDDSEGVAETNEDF

| SMILES | Vmax(app) [1] | % activity (Vmax or Vpeak) [1] | % efficiency (Vmax/KM or Vpeak/KM) [1] | metal activation profile [1] | n (Hill) [1] | effect on ATP hydrolysis rate in the presence of MgCl2 ([2]; 10 mM MgCl2) | other results |
| --- | --- | --- | --- | --- | --- | --- | --- |
| [Mg+2] [Mg^2+] | 12.3 mol/min/mg | 100% | 100% | Michaelis-Menten kinetics | 1 |  | efficiency (Vmax/KM or Vpeak/KM) relative to Co^2+ [1]: 1.5 times |
| [Sr+2] [Sr^2+] | 0.17 mol/min/mg | 1% |  | did not catalyze ATP hydrolysis | 1 | negligible effects |  |
| C=C1CCO[C@]2([C@@H](O)[C@@](C)(O)CO)NC(=O)[C@@]1(O)NC2=O [bicyclomycin, Bicyclomycin] |  |  |  |  |  |  | inhibition kinetics with respect to ribo(C)10 [3]: mixed inhibition pattern; effect on RecA poly(dT)-dependent ATP hydrolysis (E. coli RecA): no loss in RecA ATPase activity |
| [Cd+2] [Cd^2+] |  | 39% | 20% | peak velocities | 4.6 | negligible effects | effect on rho poly(C)-dependent ATP hydrolysis in the absence of MgCl2 [1]: activated; Vpeak(app) [1]: 4.74 mol/min/mg; peak velocity [1]: 4.8 µmol/min/mg; total metal concentration at peak velocity [1]: 65 µM |
| [Hg+2] [Hg^2+] | 0.78 mol/min/mg | 6% | 29% | Michaelis-Menten kinetics | 1 | inhibited | rho inhibition at 4000 μM ([2]; 10 mM MgCl2): ~50% |
| OC(CS)C(O)CS (racemic) [(DL)DTT, dithiothreitol] |  |  |  |  |  |  | effect on rho poly(C)-dependent ATP hydrolysis [4]: did not inactivate the enzyme |
| [Cl][Ni][Cl] [Ni^2+] | 4.79 mol/min/mg | 39% | 29% | sigmoidal activation pattern | 2.9 | negligible effects | effect on rho poly(C)-dependent ATP hydrolysis in the absence of MgCl2 [1]: activated |
| [Cu+2] [Cu^2+] | 1.54 mol/min/mg | 13% | 39% | Michaelis-Menten kinetics | 1 | inhibited | loss of activity ([2]; 10 mM MgCl2): ~30% |
| [Ca+2] [Ca^2+] | 3.13 mol/min/mg | 25% | 74% | Michaelis-Menten kinetics | 1 | negligible effects |  |
| [Cl-].[Cl-].[Zn+2] [Zn^2+] |  | 81% | 51% | peak velocities | 5.5 | inhibited | activity remaining at 190 μM total metal ([1]; 190 μM [Zn^2+]total): 50%; velocity at 1000 μM total metal ([1]; 1000 μM [Zn^2+]total): zero; effect on rho poly(C)-dependent ATP hydrolysis in the absence of MgCl2 [1]: activated; Vpeak(app) [1]: 9.98 mol/min/mg; peak velocity [1]: 9.4 µmol/min/mg; total metal concentration at peak velocity [1]: 125 µM; pIC50 ([1]; read-out: I50, rho poly(C)-dependent ATP hydrolysis, 0 mM MgCl2, estimated): 3.72; rho inhibition at 4000 μM ([2]; 10 mM MgCl2): ~50%; change of I50 on 10-fold poly(C) ([2]; poly(C) concentration increased 10-fold): increased only slightly; pIC50 ([2]; 1 mM MgCl2, estimated): 3.72; pIC50 ([2]; 10 mM MgCl2): 2.40 |
| [Be+2].[Cl-].[Cl-] [Be^2+] | 0.21 mol/min/mg | 2% |  | did not catalyze ATP hydrolysis |  | inhibited | activity at 100 μM ([2]; 100 μM BeCl2, 10 mM MgCl2): almost complete loss of activity; pIC50 ([2]; 10 mM MgCl2): 4.20 |
| [Cl][Mn][Cl] [Mn^2+] |  | 97% | 89% | peak velocities | 1 |  | efficiency (Vmax/KM or Vpeak/KM) relative to Co^2+ [1]: 1.6 times; % of maximum activity at 4000 μM ([1]; 4000 μM total metal): 10%; effect on rho poly(C)-dependent ATP hydrolysis in the absence of MgCl2 [1]: activated; Vpeak(app) [1]: 11.9 mol/min/mg; peak velocity [1]: 11.9 µmol/min/mg; total metal concentration at peak velocity [1]: 250 µM |
| [O]=[V+2] [VO^2+] | 0.78 mol/min/mg | 6% |  | Michaelis-Menten kinetics | 1 | negligible effects |  |
| [Co+2] [Co^2+] | 7.65 mol/min/mg | 62% | 61% | Michaelis-Menten kinetics | 1 | negligible effects |  |
